One assay deals with Tie2 (Homo sapiens, UniProt Q02763). The assay can be described thus: Tie2 ELISA assay (cellular Tie2 autophosphorylation, angiopoietin-2 stimulated). The format is cell-based. Also on record: expressed in transfected cells; host or cells: CHO (DHFR-deficient), stably transfected with Tie2. To be noted: CHO cells stably transfected with Tie2, stimulated by angiopoietin-2; Tie2 autophosphorylation by sandwich-ELISA; read-out: Tie2 activity (assay 1). How it is done: Assay 1: Tie2 ELISA Assay
Cellular activity of compounds of the present invention as inhibitors of Tie2 kinase activity was measured employing a Tie2 ELISA assay as described in the following paragraphs. Herein CHO cell-cultures, which are stably transfected by known techniques with Tie2 using DHFR deficiency as selection marker, are stimulated by angiopoietin-2. The specific autophosphorylation of Tie2 receptors is quantified with a sandwich-ELISA using anti-Tie2 antibodies for catch and anti-phosphotyrosine antibodies coupled to HRP for detection.
• 96well tissue culture plate, sterile, Greiner • 96well FluoroNunc plate MaxiSorp Surface C, Nunc • 96well plate polypropylene for compound dilution in DMSO • CHO Tie2/DHFR (transfected cells) • PBS−; PBS++, DMSO • MEM alpha Medium with Glutamax-I without Ribonucleosides and • Deoxyribonucleosides (Gibco #32561-029) • with 10% FCS after dialysis! and 1% PenStrep • Lysis buffer: 1 Tablet “Complete” protease inhibitor • 1 cap Vanadate (1 mL>40 mg/mL; working solution 2 mM) • ad 50 mL with Duschl-Puffer • pH 7.6 • Anti-Tie2-antibody 1: 425 in Coating Buffer pH 9.6 • Stock solution: 1.275 mg/mL>working.: 3 μg/mL • PBST: 2 bottles PBS(10×)+10 ml Tween, fill up with VE-water • RotiBlock 1: 10 in VE-water • Anti-Phosphotyrosine HRP-Conjugated 1: 10000 in 3% TopBlock • 3% TopBlock in PBST • BM Chemiluminescence ELISA Substrate (POD) • solution B 1: 100 solution A • SF9 cell culture medium • Ang2-Fc in SF9 cell culture medium Cell Experiment: • Dispense 5×10^4 cells/well/98 μL in 96well tissue culture plate • Incubate at 37° C./5% CO2 • After 24 h add compounds according to desired concentrations • Add also to control and stimulated values without compounds 2 μL DMSO • And mix for a few min at room temperature • Add 100 μL Ang2-Fc to all wells except control, which receives insect medium • Incubate 20 min at 37° C. • Wash 3× with PBS++ • Add 100 μl Lysis buffer/well and shake a couple of min at room temperature • Store lysates at […] before utilizing for the ELISA Performance of Sandwich-ELISA • Coat 96well FluoroNunc Plate MaxiSorp Surface C with anti-Tie2 mAb 1: 425 in Coating buffer pH 9.6; 100 μL/well overnight at 4° C. • Wash 2× with PBST • Block plates with 250 μL/well RotiBlock 1: 10 in VE-water • Incubate for 2 h at room temperature or overnight at 4° C. shaking • Wash 2× in PBST • Add thawed lysates to wells and incubate overnight shaking at 4° C. • Wash 2× with PBST • Add 100 μL/well anti-Phosphotyrosine HRP-Conjugated 1:10000 in 3% TopBlock (3% TopBlock in PBST) and incubate overnight under shaking • Wash 6× with PBST • Add 100 μL/well BM Chemiluminescence ELISA Substrate (POD) • solutions 1 und 2 (1:100) • Determine luminescence with the LumiCount. Assay 2: Tie-2-Kinase HTRF-Assay without kinase preactivation

For a further assay, the target named is T1, CDK2/CycE (Homo sapiens, UniProt P24941).
T1 construct: GST; purchased ProQinase GmbH (Freiburg, Germany); host or cells: insect cells (Sf9)
The assay can be described thus: CDK2/Cyclin E Kinase Assay. The format is biochemical. Conditions: CDK2/CycE HTRF, 10 μM ATP; read-out: CDK2 activity (assay 6). The text has this:
Assay 6: CDK2/Cyclin E Kinase Assay
CDK2/CyclinE—inhibitory activity of compounds of the present invention was quantified employing the CDK2/CycE HTRF assay as described in the following paragraphs.
Recombinant fusion proteins of GST and human CDK2 and of GST and human CycE, expressed in insect cells (Sf9) and purified by Glutathion-Sepharose affinity chromatography, were purchase from ProQinase GmbH (Freiburg, Germany). As substrate for the kinase reaction biotinylated peptide biotin-Ttds-YISPLKSPYKISEG (C-terminus in amid form) was used which can be purchased e.g. form the company JERINI peptide technologies (Berlin, Germany).
CDK2/CycE was incubated for 60 min at 22° C. in the presence of different concentrations of test compounds in 5 μl assay buffer [50 mM Tris/HCl pH 8.0, 10 mM MgCl2, 1.0 mM dithiothreitol, 0.1 mM sodium ortho-vanadate, 10 μM adenosine-tri-phosphate (ATP), 0.75 μM substrate, 0.01% (v/v) Nonidet-P40 (Sigma), 1% (v/v) dimethylsulfoxide]. The concentration of CDK2/CycE was adjusted depending of the activity of the enzyme lot and was chosen appropriate to have the assay in the linear range, typical concentrations were in the range of 1 ng/ml. The reaction was stopped by the addition of 5 μl of a solution of HTRF detection reagents (0.2 μM streptavidine-XLent and 3.4 nM Phospho-(Ser) CDKs Substrate Antibody [product #2324B, Cell Signaling Technology, Danvers, Mass., USA} and 4 nM Prot-A-EuK [Protein A labeled with Europium Cryptate from Cis biointernational, France, product no. 61PRAKLB]) in an aqueous EDTA-solution (100 mM EDTA, 800 mM KF, 0.2% (w/v) bovine serum albumin in 100 mM HEPES/NaOH pH 7.0).
The resulting mixture was incubated 1 h at 22° C. to allow the formation of complex between the phosphorylated biotinylated peptide and the detection reagents. Subsequently the amount of phosphorylated substrate was evaluated by measurement of the resonance energy transfer from the Prot-A-EuK to the streptavidine-XLent. Therefore, the fluorescence emissions at 620 nm and 665 nm after excitation at 350 nm was measured in a HTRF reader, e.g. a Rubystar (BMG Labtechnologies, Offenburg, Germany) or a Viewlux (Perkin-Elmer). The ratio of the emissions at 665 nm and at […] was taken as the measure for the amount of phosphorylated substrate. The data were normalised (enzyme reaction without inhibitor=0% inhibition, all other assay components but no enzyme=100% inhibition) and IC50 values were calculated by a 4 parameter fit using an inhouse software.

SMILES strings stand for the structures.

Tie2, sequence (Q02763 23-1124): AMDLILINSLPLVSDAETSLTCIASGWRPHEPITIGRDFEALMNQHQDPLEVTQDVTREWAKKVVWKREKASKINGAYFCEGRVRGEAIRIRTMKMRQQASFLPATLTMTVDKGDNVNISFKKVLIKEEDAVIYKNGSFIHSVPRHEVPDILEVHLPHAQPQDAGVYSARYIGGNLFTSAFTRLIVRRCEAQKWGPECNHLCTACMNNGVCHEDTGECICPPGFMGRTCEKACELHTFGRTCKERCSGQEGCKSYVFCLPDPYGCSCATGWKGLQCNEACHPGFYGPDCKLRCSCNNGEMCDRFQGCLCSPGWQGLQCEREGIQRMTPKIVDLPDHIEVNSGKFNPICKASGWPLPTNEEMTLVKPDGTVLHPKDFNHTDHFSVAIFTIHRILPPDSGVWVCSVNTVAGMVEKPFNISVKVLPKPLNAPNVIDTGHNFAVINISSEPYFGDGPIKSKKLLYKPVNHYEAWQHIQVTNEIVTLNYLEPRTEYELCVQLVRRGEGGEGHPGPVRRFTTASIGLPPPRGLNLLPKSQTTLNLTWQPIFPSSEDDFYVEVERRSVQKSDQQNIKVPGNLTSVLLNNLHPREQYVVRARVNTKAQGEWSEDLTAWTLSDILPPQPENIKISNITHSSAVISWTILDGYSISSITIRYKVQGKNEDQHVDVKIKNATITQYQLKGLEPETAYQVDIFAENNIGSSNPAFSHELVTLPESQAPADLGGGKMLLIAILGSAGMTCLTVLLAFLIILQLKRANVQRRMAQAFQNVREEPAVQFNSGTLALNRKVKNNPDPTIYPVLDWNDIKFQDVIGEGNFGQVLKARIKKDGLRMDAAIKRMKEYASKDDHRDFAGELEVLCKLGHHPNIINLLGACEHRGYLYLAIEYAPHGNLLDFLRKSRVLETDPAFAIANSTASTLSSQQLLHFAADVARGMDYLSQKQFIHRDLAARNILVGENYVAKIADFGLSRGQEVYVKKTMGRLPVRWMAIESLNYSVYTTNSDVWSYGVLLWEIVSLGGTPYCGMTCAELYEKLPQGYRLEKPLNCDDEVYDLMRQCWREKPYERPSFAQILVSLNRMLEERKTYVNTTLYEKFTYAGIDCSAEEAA

On to `COc1ccc(C#Cc2cnc(Nc3ccc(S(C)(=N)=O)cc3)nc2N[C@H](C)CO)cc1` (mixture of isomers) [Example 1.1, (RS)—S-(4-[4-((R)-2-Hydroxy-1-methyl-ethylamino)-5-(4-methoxy-phenylethynyl)-pyrimidin-2-ylamino]-phenyl)-S-methylsulfoximide], for which the IC50 is under 500 nM on Tie2 and over 10000 nM at CDK2/CycE.

As for `C[C@H](CO)Nc1nc(Nc2ccc(S(C)(=N)=O)cc2)ncc1C#Cc1ccccc1` (mixture of isomers) [Example 1.2, (RS)-S-(4-[4-((R)-2-Hydroxy-1-methyl-ethylamino)-5-(phenylethynyl)-pyrimidin-2-ylamino]-phenyl)-S-methylsulfoximide], the IC50 is under 500 nM on Tie2 and over 10000 nM on CDK2/CycE.

In the case of `CCc1ccc(C#Cc2cnc(Nc3ccc(S(C)(=N)=O)cc3)nc2N[C@H](C)CO)cc1` (mixture of isomers) [Example 1.8, (RS)-S-(4-[5-(4-Ethyl-phenylethynyl)-4-((R)-2-hydroxy-1-methyl-ethylamino)-pyrimidin-2-ylamino]-phenyl)-S-methylsulfoximide], the values for the IC50 at Tie2 and at CDK2/CycE were under 500 nM and over 10000 nM, respectively.

Turning to `C[C@H](CO)Nc1nc(Nc2ccc(S(C)(=N)=O)cc2)ncc1C#Cc1ccc(F)cc1` (mixture of isomers) [Example 1.9, (RS)-S-(4-[5-(4-Fluoro-phenyl-ethynyl)-4-((R)-2-hydroxy-1-methyl-ethylamino)-pyrimidin-2-ylamino]-phenyl)-S-methylsulfoximide], the results for the IC50 at Tie2 and at CDK2/CycE were under 500 nM and over 10000 nM, respectively.

For `Cc1cc(C#Cc2cnc(Nc3ccc(S(C)(=N)=O)cc3)nc2N[C@H](C)CO)ccc1F` (mixture of isomers) [Example 1.13, (RS)-S-(4-[5-(4-Fluoro-3-methyl-phenyl-ethynyl)-4-((R)-2-hydroxy-1-methyl-ethylamino)-pyrimidin-2-ylamino]-phenyl)-S-methylsulfoximide], the IC50 at Tie2 was under 500 nM; at CDK2/CycE, over 10000 nM.

`CC(C)NC(=O)N=S(C)(=O)c1cccc(Nc2ncc(C#Cc3cccc(O)c3)c(N[C@H](C)CO)n2)c1` (mixture of isomers) [Example 1.15, (RS)-S-(3-[4-((R)-2-Hydroxy-1-methyl-ethylamino)-5-(3-hydroxy-phenylethynyl)-pyrimidin-2-ylamino]-phenyl)-N-(isopropylcarbamoyl)-S-methylsulfoximide]: the figures for the IC50 at Tie2 and at CDK2/CycE were under 500 nM and 1000 to 10000 nM, respectively.

Turning to `COc1ccc(C#Cc2cnc(Nc3cccc(S(C)(=N)=O)c3)nc2N[C@H](C)CO)cc1` (mixture of isomers) [Example 1.17, (RS)-S-(3-[4-((R)-2-Hydroxy-1-methyl-ethylamino)-5-(4-methoxy-phenylethynyl)-pyrimidin-2-ylamino]-phenyl)-S-methylsulfoximide], the IC50 on Tie2 is under 500 nM; at CDK2/CycE it was over 10000 nM.

In the case of `C[C@H](CO)Nc1nc(Nc2cccc(S(C)(=N)=O)c2)ncc1C#Cc1cccc(O)c1` (mixture of isomers) [Example 1.18, (RS)-S-(3-[4-((R)-2-Hydroxy-1-methyl-ethylamino)-5-(3-hydroxy-phenylethynyl)-pyrimidin-2-ylamino]-phenyl)-S-methylsulfoximide], the IC50 at Tie2 is under 500 nM; on CDK2/CycE it was 1000 to 10000 nM.

Regarding `Cc1ccccc1C#Cc1cnc(Nc2cccc(S(C)(=N)=O)c2)nc1N[C@H](C)CO` (mixture of isomers) [Example 1.19, (RS)-S-(3-[4-((R)-2-Hydroxy-1-methyl-ethylamino)-5-(2-methyl-phenylethynyl)-pyrimidin-2-ylamino]-phenyl)-S-methylsulfoximide], on Tie2, the IC50 is under 500 nM.

For the compound `Cc1cc(C#Cc2cnc(Nc3cccc(S(C)(=N)=O)c3)nc2N[C@H](C)CO)ccc1F` (mixture of isomers) [Example 1.20, (RS)-S-(3-[5-(4-Fluoro-3-methyl-phenyl-ethynyl)-4-((R)-2-hydroxy-1-methyl-ethylamino)-pyrimidin-2-ylamino]-phenyl)-S-methylsulfoximide], the IC50 on Tie2 is under 500 nM.

As to `Cc1ccccc1C#Cc1cnc(Nc2ccc(S(C)(=N)=O)cc2)nc1N[C@H](C)CO` (mixture of isomers) [Example 1.3], the IC50 at Tie2 is under 500 nM; at CDK2/CycE it was 1000 to 10000 nM.

As to `Cc1ccc(C#Cc2cnc(Nc3ccc(S(C)(=N)=O)cc3)nc2N[C@H](C)CO)cc1` (mixture of isomers) [Example 1.5], the IC50 was under 500 nM at Tie2 and 1000 to 10000 nM on CDK2/CycE.

Turning to `CCNc1nc(Nc2ccc(S(C)(=N)=O)cc2)ncc1C#Cc1ccc(F)c(C)c1` (racemic) [Example 1.24, (RS)-S-(4-[4-ethylamino-5-(4-fluoro-3-methyl-phenyl-ethynyl)-pyrimidin-2-ylamino]-phenyl)-S-methylsulfoximide], the figures for the IC50 on Tie2 and on CDK2/CycE were under 500 nM and over 10000 nM, respectively.

On to `CCNc1nc(Nc2ccc(S(C)(=N)=O)cc2)ncc1C#Cc1ccc(OC)cc1` (racemic) [Example 1.26, (RS)-S-(4-[4-ethylamino-5-(4-methoxy-phenyl-ethynyl)-pyrimidin-2-ylamino]-phenyl)-S-methylsulfoximide], for which the IC50 is under 500 nM at Tie2 and over 10000 nM at CDK2/CycE.

Consider `CCOC(=O)N=S(C)(=O)c1ccc(Nc2ncc(C#Cc3cccc(O)c3)c(N[C@H](C)CO)n2)cc1` (mixture of isomers) [Example 2.7], for which the figures for the IC50 at Tie2 and at CDK2/CycE were under 500 nM and 1000 to 10000 nM, respectively.

With `CS(=N)(=O)c1cccc(Nc2ncc(C#Cc3cccc(O)c3)cn2)c1` (racemic) [Example 4.2, (RS)—S-(3-[5-(3-hydroxy-phenylethynyl)-pyrimidin-2-ylamino]-phenyl)-S-methylsulfoximide], the figures for the IC50 at Tie2 and on CDK2/CycE were under 500 nM and over 10000 nM, respectively.
